Results reported in patent US7300546B2, “Cellulose fiber having improved biostability and the resulting products” (Weyerhaeuser Company, priority 2000, dated 2007).

Test system: cellulose fungal decay
Test: Inground testing of cement-treated pulp sheets, subjective visual rating for deterioration (biodurability)
Set-up: species or system fungi
Conditions: for biological protection: summary statement in Example 2
Description: Samples for testing were prepared by obtaining unbleached mixed conifer kraft pulp sheets produced in an interior British Columbia mill. […] Solutions of various biocides were made up so that the desired ultimate concentration of active material would be obtained by spraying each sample portion of pulp sheet with about 1 g of the biocidal solution per gram of pulp. […] Subsequently the treated sheets were reslurried in water having a pH ˜12 obtained from a cement board manufacturing facility and refined to a Canadian Standard Freeness (CSF) level of 450 mL. All refining was done in a pilot scale Model 202 Claflin refiner (available from Bolton-Emerson, Inc., Lawrence, Mass.). The treated and refined pulp was dewatered by centrifuging to a consistency of about 30% and then pin fluffed to ensure uniformity.
Treatments included copper sulfate at concentrations of 0.1, 0.3, and 0.5% Cu w/w based on dry pulp; zinc sulfate at concentrations of 0.1%, 0.3%, and 0.6% Zn; 0.2% propiconazole emulsion; didecyldimethylammonium chloride (DDAC) 0.2%, 0.5%; and 1.0%, and 1.0% DDAB. Treated fibers were also made using 1.0% DDAC with 0.05%, 0.10%, and 0.2% Cu added as copper sulfate. All concentrations are on a weight/weight basis.
Samples of 30 g of the treated pulps were reslurried in water and formed into sheets in an 8×8 inch (203×203 mm) sheet. The sheets were pressed to remove excess moisture then air dried. Each sheet was then cut in half and dipped for 30 seconds in a slurry of one part Portland cement in three parts by weight water. The coated and impregnated sheets were removed and drained, allowed to cure for two days wet, and then air dried. Each 4×8 inch ([…] mm) cement treated sheet was then enclosed in a 20 mesh stainless steel screen and half buried in the ground at a test site at Hilo, Hi. Samples were then removed after three month, six month, nine month, and twelve month periods for examination. Exposed sheets were assigned a subjective rating for deterioration based on visual observation (3=sound and 0=complete deterioration). The exposed sheets were also examined microscopically to determine the presence of fungal mycelium and cell wall deterioration. […] 1

CCCCCCCCCC[N+](C)(C)CCCCCCCCCC.[Br-] [DDAB, didecyldimethylammonium bromide]
below ground protection (DDAB at 1% (lower concentrations not tested)): effective below ground protection

CCCCCCCCCC[N+](C)(C)CCCCCCCCCC.[Cl-] [DDAC, didecyldimethylammonium chloride]
below ground protection (DDAC at 0.5% or greater): effective below ground protection

O=S(=O)([O-])[O-].[Zn+2] [Zinc compounds, zinc sulfate]
decay protection (at any concentration tested): did not give effective decay protection | biological protection: poor

O=S(=O)([O-])[O-].[Cu+2] [copper, copper sulfate]
reducing cellulose fungal decay (after the one year underground tests): effective in reducing cellulose fungal decay | below ground protection (copper at concentrations of 0.3% or greater): effective below ground protection

CCCC1COC(Cn2cncn2)(c2ccc(Cl)cc2Cl)O1 (centres unmarked) [propiconazole]
decay protection (at 0.2%): did not give effective decay protection | biological protection: poor
